Reference: PMC10111413 (ACS Infectious Diseases, 2023)

Experiments:
Format in all cases: cell-based
[1] = tested on: A. baumannii ATCC 17978; details: CLSI, cation-adjusted MHB, 18 h at 37 °C, three technical replicates
Protocol: (§1) VIII. Antimicrobial testing
(§2) Table S2. Minimum inhibitory concentrations (MICs) determined against panel of previously characterized colistin-resistant A. baumannii clinical isolates5
(§3) Strain Relacidine A (3a) Relacidine B (4a) Relacidamide (5) Colistin […]
(§4) aMIC values given in µg/ml.
(§5) All minimum inhibitory concentrations were determined according to Clinical and Standards Laboratory Institute (CLSI) guidelines. Blood agar plates were inoculated from glycerol stocks of the different A. baumannii strains used and then incubated for 16 h at 37 °C . Individually grown colonies were subsequently used to inoculate 5 mL aliquots of TSB that were then incubated at 37 °C. In parallel, the lipopeptide antibiotics DMSO stocks to be assessed were serially diluted with cation-adjusted MHB in polypropylene 96-well plates (50 µL in each well). Colistin sulfate stocks were dissolved in water before being diluted with cation-adjusted MHB. The A. baumannii inoculated TSB aliquots were incubated until an OD600 of around 0.5 was reached. The bacterial suspensions were then diluted with cation-adjusted MHB (2 x 10^5 CFU mL-1) and added to the microplates containing the test compounds (50 µL to each well). The well-plates were sealed with an adhesive membrane and after 18 h of incubation at 37 °C visually inspected for bacterial growth. MIC values reported are based on three technical replicates and defined as the lowest concentration of the compound that prevented visible

[2] = tested on: A. baumannii BV172; details: CLSI, cation-adjusted MHB, 18 h at 37 °C, three technical replicates
Protocol: as §1, §2, §3, §4, §5

[3] = tested on: A. baumannii BV173; details: CLSI, cation-adjusted MHB, 18 h at 37 °C, three technical replicates
Protocol: as §1, §2, §3, §4, §5

[4] = tested on: A. baumannii BV94; details: colistin-resistant clinical isolate; CLSI, cation-adjusted MHB, 18 h at 37 °C, three technical replicates
Protocol: as §1, §2, §3, §4, §5

[5] = tested on: A. baumannii BV95; details: CLSI, cation-adjusted MHB, 18 h at 37 °C, three technical replicates
Protocol: as §1, §2, §3, §4, §5

[6] = tested on: A. baumannii HUMC1; details: CLSI, cation-adjusted MHB, 18 h at 37 °C, three technical replicates
Protocol: as §1, §2, §3, §4, §5

[7] = tested on: A. baumannii LAC-4; details: CLSI, cation-adjusted MHB, 18 h at 37 °C, three technical replicates
Protocol: as §1, §2, §3, §4, §5

[8] = tested on: A. baumannii NCTC 13304; details: CLSI, cation-adjusted MHB, 18 h at 37 °C, three technical replicates
Protocol: as §1, §2, §3, §4, §5

[9] = tested on: A. baumannii NCTC 13420; details: CLSI, cation-adjusted MHB, 18 h at 37 °C, three technical replicates
Protocol: as §1, §2, §3, §4, §5

[10] = tested on: sheep red blood cells; assay: Hemolytic assay; details: 128 μg/mL, 1 h at 37 °C, sheep red blood cells in PBS with 0.002% Tween20, read-out 415 nm, relative to 0.1% Triton X-100, triplicate
Protocol: Figure S2. Hemolytic activity of compounds 3a-5 at 128 µg/mL and 1 h incubation against sheep red […]
under the same conditions.
Experiments were performed in triplicate and Triton X-100 used as a positive control. Red blood cells from defibrinated sheep blood obtained from Thermo Fisher were centrifuged (400 g for 15 min at 4°C) and washed with Phosphate-Buffered Saline (PBS) containing 0.002% Tween20 (buffer) five times. Then, the red blood cells were normalized to obtain a positive control read-out between 2.5 and 3.0 at 415 nm to stay within the linear range with the maximum sensitivity. A serial dilution of the compounds (128 – 1 µg/mL, 75 µL) was prepared in a 96-well polypropylene plate. The outer border of the plate was filled with 75 µL buffer. Each plate contained a positive control (0.1% Triton-X final concentration, 75 µL) and a negative control (buffer, 75 µL) in triplicate. The normalized blood cells (75 µL) were added and the plates were incubated at 37 °C for 1 h while shaking at 500 rpm. A flat - bottom polystyrene plate with 100 µL buffer in each well was prepared. […] The values obtained from a read-out at 415 nm were corrected for background (negative control) and transformed to a percentage relative to the positive […]

colistin [reference compound]
MIC A. baumannii ATCC 17978 [1]: 1 µg/mL | MIC A. baumannii BV172 [2]: > 64 µg/mL | MIC A. baumannii BV173 [3]: 16 µg/mL | MIC A. baumannii BV94 [4]: > 64 µg/mL | MIC A. baumannii BV95 [5]: 32 µg/mL | MIC A. baumannii HUMC1 [6]: 1 µg/mL | MIC A. baumannii LAC-4 [7]: 0.5 µg/mL | MIC A. baumannii NCTC 13304 [8]: 1 µg/mL | MIC A. baumannii NCTC 13420 [9]: 0.5 µg/mL | hemolysis [10]: < 0.1%
